# Reference: US9604974B2, “Compounds as modulator of JAK-STAT pathway, methods and applications thereof” (UNIVERSITY OF MYSORE, priority 2015, dated 2017)
# Tests used:
# [1] = system: DU145 (prostrate cancer cell line); test: MTT anti-proliferative assay, DU145; type: cell-based; conditions: Homo sapiens, DU-145
# Procedure: The anti-proliferative activity of Formula I compounds are studied on HepG2 cells using MTT assay. Briefly, the cells (2.5×10^4/ml) are incubated in triplicate in a 96-well plate in the presence or absence of different concentrations of compounds in a final volume of 0.2 ml up to 72 hours at 37° C. Thereafter, 20 μl MTT solution (5 mg/ml in PBS) is added to each well. After 2 hours of incubation at 37° C., 0.1 ml lysis buffer (20% SDS, 50% dimethyl-formamide) is added; incubation is continued overnight at 37° C.; and the optical density (OD) at 570 nm is measured by Tecan plate reader.
# Additionally, Compound 1 is tested on a panel of six cell lines including Hep3B, PLC/PRF5, AGS (gastric cancer cell line), DU145 (prostrate cancer cell line), MDA MB231 (breast cancer cell line) and CAL27 (head and neck cancer cell line) cells.
# [2] = system: STAT3; test: STAT3 DNA binding TransAM ELISA on nuclear extracts; type: cell-based, human; conditions: HepG2 nuclear extracts, 10 μMol/L CIMO
# Procedure: It is further investigated whether CIMO modulates STAT3 DNA binding activity in HepG2 cells, since it is known that STAT3 dimer translocates into the nucleus and binds to specific DNA nucleotide sequence to regulate gene expression. DNA binding assay is performed using a STAT3 DNA binding TransAM™ ELISA kit (Active Motif, Carlsbad, Calif., USA). Briefly, nuclear extracts (5 μg) from CIMO-treated cells are incubated in a 96-well plate coated with oligonucleotide containing the STAT3-specific DNA probe. Bound STAT3 is then detected by a specific primary antibody. An HRP-conjugated secondary antibody is subsequently applied to detect the bound primary antibody and provided the basis for colorimetric quantification. The enzymatic product is measured at 450 nm with a microplate reader (Tecan Systems, San Jose, Calif., USA). Specificity of this assay is tested by the addition of wild-type or mutated STAT3 consensus oligonucleotide in the competitive or mutated competitive control wells before the addition of the nuclear extracts.
# [3] = system: STAT3; test: IL-6 induced STAT3 phosphorylation in Hep3B; type: cell-based; conditions: 10 μMol/L CIMO, IL-6 10 ng/mL
# Procedure: FIG. 3 depicts comparative study of cell viability between STAT3-siRNA transfected and Compound 1 (CIMO) treated HepG2 cells [A]. Correspondingly, Western Blot analysis is used to assess the levels of phospho-STAT3 and STAT3 in HepG2 cells with siRNA-mediated depletion STAT3 expression and on exposure to 4 μM CIMO. Whole cell extract is prepared and resolved on SDS-PAGE gel, electrotransferred onto nitrocellulose membrane, and probed for phospho-STAT3 and the same blot is stripped and reprobed with STAT3 antibody and Beta actin to verify equal protein loading. [B] showcases the modulation of STAT3 mediated transcription, α2-M promoter activity by Compound 1 (CIMO) in HepG2 cells. [C] depicts the inhibition of IL-6-induced phosphorylation of STAT3, JAK1 and JAK2 by Compound 1 (CIMO). Hep3B cells (5×10^5/mL) are treated with 10 μMol/L CIMO for the indicated times and then stimulated with IL-6 (10 ng/mL) for about 15 minutes. Whole-cell extracts are then prepared, resolved on SDS-PAGE gel, electrotransferred onto nitrocellulose membrane and probed with phospho-STAT3, phospho-JAK1 and phospho-JAK2 antibodies. The same blot is stripped and reprobed with STAT3, JAK1 and JAK2 antibody to verify equal protein loading. [D] and [E], showcases the suppression of STAT3 regulated gene products involved in cell proliferation and survival by Compound 1 (CIMO). […]
# [4] = system: SHP-1, SHPTP-2, PTP1B; test: Western blot of tyrosine phosphatase expression; type: cell-based, human; conditions: HepG2, CIMO up to 4 hours
# [5] = system: Huh 7-Luc tumors; test: Orthotopic human HCC model, bioluminescence tumor growth; type: in vivo, athymic nu/nu female mice; conditions: 10 mg/kg intraperitoneal, five days a week; p value=0.0385
# Procedure: All animal experiments were performed according to protocols approved by the SingHealth Institutional Animal Use and Care Committee. For drug efficacy study, eight week-old athymic nu/nu female mice (from Biolasco, Taiwan) were implanted with the Huh 7-Luc cells orthotopically as described in the below examples. When the bioluminescence signal reached 10^6, mice were treated either with vehicle (1% DMSO), 2 mg/kg of CIMO or 10 mg/kg of CIMO five days a week intraperitoneally. Tumor development was monitored twice a week by measuring the bioluminescence signals. Mice were euthanized when the humane end-point criteria is met by CO2 inhalation. Primary liver tumor and lung tissues were excised, snap-frozen and stored at −80° C. until further analysis.
# The antitumor potential of CIMO is tested in vivo via. intra-peritoneal administration in an orthotopic model of human HCC using Huh 7-Luc transfected cells. 100 μl containing 3×10^6 Huh 7-Luc cells are injected subcutaneously in the right flank of Nude mice. When the tumor volume reaches approximately 1 cm^3, tumor is harvested, cut into 2 mm^3 pieces and then implanted orthotopically into the liver of Nude mice. […] The development of tumors is monitored by imaging and quantification of the bioluminescence signals using the Xenogen IVIS system (Caliper Life Sciences, CA). […]
compound,measurement,setting,value
COc1ccc(C2CNC(c3cn(Cc4ccc(-c5ccccc5C#N)cc4)c4ccccc34)OC23CCCCC3)cc1 (centres unmarked) [Compound 1],IC50,[1],38.8 µM
same,binding of STAT3 to the DNA,[2],suppresses the binding of STAT3 to the DNA in a time-dependent manner
same,IL-6 induced phosphorylation of STAT3,[3],substantially down-regulates
same,"levels of SHP-1, SHPTP-2, PTP1B",[4],no change
same,tumor growth versus DMSO treated controls,[5],significant inhibition of tumor growth
